Consider two compounds from patent US7867979B2, “Drug composition for treating 2 type diabetes and diabetic chronicity complications” (Hainan Deze Drug Research Co., Ltd., priority 2006, dated 2011).

One series relates to diabetic GK rats. Put plainly: Blood glucose and lipid in GK rats. It is filed as in vivo, Goto-Kakizaki rats (GK). The note with it: oral daily 12 weeks; for GLU / Lipid TC / Lipid TG: GK rats, high fat diet. The source says:
The GK (Goto-Kakizaki) rat is the spontaneous model of diabetes, the pathogenesis of GK rat is very similar to the pathogenesis of type 2 diabetes. After diabetes attack, hyperglycemia and insulin secretion weakened emerge rapidly, the latter diseases may be complicated by retinopathy, micro-vascular disease, neuropathy, nephropathy in GK rat. The GK rats have been widely used in type 2 diabetes study, so we choose GK rat as the animal model of the following experiment. […] Then they can be mixed or diluted in accordance with the dose and the ratio. 1.3 Goto-Kakizaki rats (GK) (4 months age, ♀♂) and Wistar rats (SPF level, ♀♂) were purchased from Shanghai SLAC laboratory animal Co., Ltd. In addition to the normal rats, the other rats were fed with high fat diet (20% protein and 3.5% cholesterol). After the rats was feeding adaptation for one week, The GK rats which the blood glucose level was more than 11.1 mmol/L were selected, and then divided into the following groups random: GK rats control group (n=10); mangiferin groups (10, 30, 200 mg/kg, each group 10 rats); berberine groups (10, 20, 150 mg/kg, each group 10 rats); composition group 1[[mangiferin (10 mg/kg)+berberine (10 mg/kg)], 10 rats]; composition group 2[[mangiferin (200 mg/kg)+berberine (150 mg/kg)], 10 rats]. Wistar rats are normal control group (10 rats). GK rats control group and Wistar rats group were given saline. The other groups were given test drugs. Test samples were administrated orally at the same time every day for 12 weeks. 3.1 Blood Glucose and lipid: The blood specimens were taken at the end of the test. Plasma glucose (GLU), triglycerides (TG), total cholesterol (TC) were determined by HITACHI7080 automatic biochemistry analyzer. […] The results have been calculated as mean±SD ( x±SD) and the comparisons of the data have been done by t-test. […] Mangiferin and berberine are prepared in accordance with the method of preparation of example 1 and 2. Then they can be mixed in accordance with the dose and the ratio such as table 3. 1.2 Animal: Goto-Kakizaki rats (GK) (4 months age, ♀♂) and Wistar rats (SPF level, ♀♂) were purchased from Shanghai SLAC laboratory animal Co., Ltd. In addition to the normal rats, the other rats were fed with high fat diet (20% protein and 3.5% cholesterol). After the rats was feeding adaptation for one week, GK rats that the blood glucose level of the GK rats was more than 11.1 mmol/L were selected, and then random divided into the following groups as follows (Table 3): There are ten rats in every group. GK rats control group and wistar rats group were given saline. The other groups were given test drugs. Test samples were administrated orally at the same time every day for 12 weeks. The measurements are as same as the above experiment.

Another series relates to Propyl dialdehyde (MDA). The experiment in a line: Propyl dialdehyde (MDA) in kidney tissue homogenate of GK rats. It is filed as in vivo, Goto-Kakizaki rats (GK). The following applies: oral daily 12 weeks. On the procedure: GK rats control group (n=10); mangiferin groups (10, 30, 200 mg/kg, each group 10 rats); berberine groups (10, 20, 150 mg/kg, each group 10 rats); composition group 1[[mangiferin (10 mg/kg)+berberine (10 mg/kg)], 10 rats]; composition group 2[[mangiferin (200 mg/kg)+berberine (150 mg/kg)], 10 rats]. Wistar rats are normal control group (10 rats). GK rats control group and Wistar rats group were given saline. The other groups were given test drugs. Test samples were administrated orally at the same time every day for 12 weeks. 3.3.1 Preparation of tissue homogenate: Rats were killed by femoral artery bloodletting after administration of the rats for 12-weeks. Kidney tissue of the rats were taken, the blood of kidney tissue were washed with cooling saline (4° C.), then the remnant water was absorbed with filter paper, the kidney tissue was weighed. Per gram kidney tissue was added into 10 ml saline, which was put in homogenized machine (10,000 r/min, 10 seconds, 3rd), 10% tissue homogenate was prepared, the tissue homogenate was centrifuged (4000 r/min) for 10 minutes to get supernatant, the supernatant was saved in −20° C. for determination. 3.3.2.2 Propyl dialdehyde (MDA): MDA is determined by TBA, the test box was bought from Nanjing Jiancheng Bioengineering Research Institute. […] The results have been calculated as mean±SD ( x±SD) and the comparisons of the data have been done by t-test. There are ten rats in every group. GK rats control group and wistar rats group were given saline. The other groups were given test drugs. Test samples were administrated orally at the same time every day for 12 weeks. The measurements are as same as the above experiment.

For series [1] the following is noted: 2.0 g once orally; cited from earlier work.
For series [2] the following is noted: in vivo; cited from earlier work.
For series [3] the following is noted: cited from earlier work.
The next series has as its system rat. The note with it: intraperitoneal injection once; cited from earlier work.
[4] abbreviates: 30 mg/kg mangiferin, 20 mg/kg berberine.

In the case of `COc1ccc2cc3[n+](cc2c1OC)CCc1cc2c(cc1-3)OCO2` [Berberine], the “Improvement of GLU, TC, TG, AR, MDA, SOD in diabetic GK rats” value with diabetic GK rats (10 mg/kg) is recorded as “do not significantly improve”; with diabetic GK rats (setting [4]) it was “improves”. Further, the GLU came to 21.24 ± 3.13 mmol/L with diabetic GK rats (10 mg/kg), 12.29 ± 2.76 mmol/L in the series on diabetic GK rats (20 mg/kg) and 9.11 ± 2.08 mmol/L in the series on diabetic GK rats (150 mg/kg). Besides, the entries for the “Lipid TC” value in the series with diabetic GK rats (10 mg/kg), with diabetic GK rats (20 mg/kg) and in the series on diabetic GK rats (150 mg/kg) were 4.53 ± 1.28 mmol/L, 3.27 ± 0.24 mmol/L and 3.01 ± 0.28 mmol/L, respectively. Also, the results for the “Lipid TG” value in the series with diabetic GK rats (10 mg/kg), in the series with diabetic GK rats (20 mg/kg) and with diabetic GK rats (150 mg/kg) were 3.49 ± 0.68 mmol/L, 2.79 ± 0.24 mmol/L and 1.80 ± 0.19 mmol/L, respectively. The “Measurements about oxidation MDA” value in the series on Propyl dialdehyde (MDA) (10 mg/kg) is 4.39 ± 0.90 nmol/mg pro; in the series with Propyl dialdehyde (MDA) (20 mg/kg), 3.51 ± 0.46 nmol/mg pro; with Propyl dialdehyde (MDA) (150 mg/kg), 2.76 ± 0.40 nmol/mg pro. Further, the Adverse reactions entry in series [1] is recorded as “we don't find any adverse reactions”. Also, in series [2], the Bioavailability entry is given as “very low”.
As usually defined, the LD50 is the dose at which mortality reaches 50%. On to `O=c1c2cc(O)c(O)cc2oc2cc(O)c([C@@H]3O[C@H](CO)[C@@H](O)[C@H](O)[C@H]3O)c(O)c12` [Mangiferin], for which the “Improvement of GLU, TC, TG, AR, MDA, SOD in diabetic GK rats” value with diabetic GK rats (10 mg/kg) is recorded as “do not significantly improve”; in the series with diabetic GK rats (setting [4]), “improves”. Also, the values for the GLU in the series on diabetic GK rats (10 mg/kg), in the series with diabetic GK rats (30 mg/kg) and in the series on diabetic GK rats (200 mg/kg) were 20.75 ± 3.39 mmol/L, 13.05 ± 2.23 mmol/L and 9.05 ± 2.04 mmol/L, respectively. Moreover, the “Lipid TC” value in the series on diabetic GK rats (10 mg/kg) is given as 4.48 ± 1.53 mmol/L; in the series with diabetic GK rats (30 mg/kg), 3.16 ± 0.32 mmol/L; with diabetic GK rats (200 mg/kg) it was 3.06 ± 0.29 mmol/L. Further, the “Lipid TG” value is given as 3.62 ± 0.41 mmol/L in the series with diabetic GK rats (10 mg/kg), 2.82 ± 0.22 mmol/L in the series with diabetic GK rats (30 mg/kg) and 1.82 ± 0.32 mmol/L with diabetic GK rats (200 mg/kg). Also, the “Measurements about oxidation MDA” value in the series on Propyl dialdehyde (MDA) (10 mg/kg) is 4.41 ± 0.87 nmol/mg pro; in the series on Propyl dialdehyde (MDA) (30 mg/kg), 3.48 ± 0.47 nmol/mg pro; in the series on Propyl dialdehyde (MDA) (200 mg/kg) it was 2.75 ± 0.48 nmol/mg pro. Further, the Solubility in water entry in series [3] is “cannot dissolve in water”. Moreover, the LD50 in the series on rat is given as 365 mg/kg.
